The record followed here is BindingDB's records for doi:10.7270/Q2154FH8 (Burnham Center For Chemical Genomics, 2010).

The assay deals with Intestinal-type alkaline phosphatase (Homo sapiens, UniProt P09923). Description: inhibition of human intestinal alkaline phosphatase – biochemical, luminescent, uHTS hits, set 2, dose response (AID 488793).
Sequence of Intestinal-type alkaline phosphatase (P09923 whole entry): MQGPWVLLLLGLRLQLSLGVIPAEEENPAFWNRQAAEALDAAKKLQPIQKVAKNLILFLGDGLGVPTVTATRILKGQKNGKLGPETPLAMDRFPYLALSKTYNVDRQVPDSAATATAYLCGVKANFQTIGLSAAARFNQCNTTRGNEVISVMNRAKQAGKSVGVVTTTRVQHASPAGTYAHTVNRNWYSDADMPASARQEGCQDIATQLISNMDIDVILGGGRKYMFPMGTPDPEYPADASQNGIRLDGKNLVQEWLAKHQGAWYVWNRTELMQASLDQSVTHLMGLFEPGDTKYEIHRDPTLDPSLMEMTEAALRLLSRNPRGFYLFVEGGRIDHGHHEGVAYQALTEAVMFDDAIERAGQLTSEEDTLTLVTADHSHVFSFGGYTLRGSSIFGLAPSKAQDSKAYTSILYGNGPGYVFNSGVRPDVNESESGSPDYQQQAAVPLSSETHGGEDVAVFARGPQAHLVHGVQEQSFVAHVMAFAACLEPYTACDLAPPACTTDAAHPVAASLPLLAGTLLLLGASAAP
In turn, `CC(N=Nc1ccccc1[N+](=O)[O-])c1ccc([N+](=O)[O-])cc1` (centres undefined) registered an IC50 of 77.3 µM. As for `CCOC1=CC(=Cc2c(C)[nH]oc2=O)C=C(Br)C1=O` [4-[(Z)-(3-bromo-5-ethoxy-4-oxo-1-cyclohexa-2,5-dienylidene)methyl]-3-methyl-2H-isoxazol-5-one], the figure is 35.8 µM; as for `C=c1[nH]n(Cc2ccccc2)c(=O)c1=Cc1ccc(N(C)C)cc1` [(4Z)-4-[[4-(dimethylamino)phenyl]methylidene]-5-methyl-2-(phenylmethyl)-3-pyrazolone], 39.4 µM. The molecule `O=C(O)[C@H]1O[C@@H](Oc2c(-c3ccc(O)c(O)c3)oc3cc(O)cc(=O)c-3c2O)[C@H](O)[C@@H](O)[C@@H]1O` [quercetin glucuronide] displayed an IC50 of 0.891 µM.
